From ChEMBL document CHEMBL1158103, “Theopapuamide, a cyclic depsipeptide from a Papua New Guinea lithistid sponge Theonella swinhoei” (J Nat Prod, 2006) come the findings set out here.

A short description of assay [1]: Cytotoxicity against human HCT 116 cells after 48 hrs by MTT assay. Conditions: HCT-116, 48 h. Format: functional, cell-based. (Tetrazolium assays rely on reduction of a dye to a coloured formazan, in cell work by metabolically active cells.)
The nature of assay [2]: Cytotoxicity against human CEM-TART cells after 72 hrs by MTT assay. Format: cell-based.

A word on the EC50: it is the concentration that produces a half-maximal response. Higher therefore signals a need for much substance.

Regarding `CCC(C)CC(C)C(O)C(C)C(=O)N[C@H](CN)C(=O)NC(C(O)C(O)C(=O)N[C@H](C(=O)N[C@H]1C(=O)N[C@H]([C@@H](C)O)C(=O)N[C@H](CCCN)C(=O)N[C@@H](CC(C)C)C(=O)N(C)[C@@H](CCC(N)=O)C(=O)N[C@@H]([C@@H](OC)C(N)=O)C(=O)N[C@H](CC(N)=O)C(=O)N(C)[C@@H](CC(C)C)C(=O)O[C@@H]1C)[C@H](C)C(C)C(N)=O)C(C)(C)O` (some centres not stated) [THEOPAPUAMIDE], the EC50 worked out at 0.9 µM in assay [1] and 0.5 µM in assay [2].
